Biological target: Serine/threonine-protein kinase PLK1 (Homo sapiens, UniProt P53350)
Assay: redox cycling hydrogen peroxide generation, dose response, artefact control for Plk1 PBD inhibitor project, biochemical, 1 mM DTT (AID 936)

Sequence of Serine/threonine-protein kinase PLK1 (P53350 whole entry): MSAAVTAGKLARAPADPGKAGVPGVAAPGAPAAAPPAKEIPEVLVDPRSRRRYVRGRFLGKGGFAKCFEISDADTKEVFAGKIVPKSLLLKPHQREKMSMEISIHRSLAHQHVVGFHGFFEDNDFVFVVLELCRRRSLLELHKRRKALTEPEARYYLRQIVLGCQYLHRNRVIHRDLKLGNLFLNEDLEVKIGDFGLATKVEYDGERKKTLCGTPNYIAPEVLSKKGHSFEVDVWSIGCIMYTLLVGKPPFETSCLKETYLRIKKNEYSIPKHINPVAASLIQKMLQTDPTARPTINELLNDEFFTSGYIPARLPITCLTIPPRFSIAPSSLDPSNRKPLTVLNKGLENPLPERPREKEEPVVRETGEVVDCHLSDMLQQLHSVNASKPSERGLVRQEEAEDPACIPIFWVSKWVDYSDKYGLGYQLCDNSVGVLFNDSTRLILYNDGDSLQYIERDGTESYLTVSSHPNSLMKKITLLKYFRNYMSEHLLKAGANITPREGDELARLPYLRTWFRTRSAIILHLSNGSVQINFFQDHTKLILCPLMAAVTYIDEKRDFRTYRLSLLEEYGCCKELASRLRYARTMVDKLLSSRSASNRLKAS

Row | SMILES | EC50
1 | CCN1C(=O)/C(=C/c2nc3ccccc3c(=O)n2-c2ccccc2)c2ccccc21 [2-[(1-ethyl-2-oxo-1,2-dihydro-3H-indol-3-ylidene)methyl]-3-phenyl-4(3H)-quinazolinone] | > 50 µM
2 | COC(=O)CCc1c(C)[nH]c(=S)[nH]c1=O [3-(6-methyl-4-oxo-2-sulfanylidene-1H-pyrimidin-5-yl)propanoic acid methyl ester] | > 50 µM
3 | CC1CCCC(NC2CCCCNC2=O)C1 (stereo not given) [3-[(3-methylcyclohexyl)amino]-2-azepanone] | > 50 µM
4 | Cn1cc(SCC(=O)Nc2ccc3c(c2)OCCO3)c2ccccc21 [MLS000529783] | > 50 µM
5 | O=C(NC1(C(F)(F)F)NC(=O)N(CC2CCCCC2)C1=O)c1ccco1 (stereo not given) [MLS000040678] | > 50 µM
6 | Cc1ccccc1NS(=O)(=O)c1cc(C(=O)NCc2ccco2)ccc1C [MLS000052108] | > 50 µM
7 | CCCSc1nc(N2CCOCC2)c2c(c1C#N)CCCC2 [1-(4-morpholinyl)-3-(propylthio)-5,6,7,8-tetrahydroisoquinoline-4-carbonitrile] | > 50 µM
8 | COc1ccc(S(=O)(=O)N(C)CC(=O)Nc2ccccc2C(F)(F)F)cc1 [2-[(4-methoxyphenyl)sulfonyl-methyl-amino]-N-[2-(trifluoromethyl)phenyl]acetamide] | > 50 µM
9 | Cn1c(=O)c2c(ncn2CCCc2ccccc2)n(C)c1=O [1,3-Dimethyl-7-(3-phenyl-propyl)-3,7-dihydro-purine-2,6-dione] | > 50 µM
10 | Cc1ccc(NC(=O)C2CC=CCC2C(=O)N2CCCCC2)cc1 (stereo not given) [6-(Piperidine-1-carbonyl)-cyclohex-3-enecarboxylic acid p-tolylamide] | > 50 µM
11 | COc1ccccc1C1SCCN1S(=O)(=O)c1cccc(C(F)(F)F)c1 (stereo not given) [2-(2-Methoxy-phenyl)-3-(3-trifluoromethyl-benzenesulfonyl)-thiazolidine] | > 50 µM
12 | O=C(CN1C(=O)c2ccccc2C1=O)N1CCN(c2nnc(-c3ccccc3)c3ccccc23)CC1 [2-[2-keto-2-[4-(4-phenylphthalazin-1-yl)piperazino]ethyl]isoindoline-1,3-quinone] | > 50 µM
13 | CC(C)N(Cc1cc2ccccc2[nH]c1=O)C(=O)c1cccnc1 [N-[(2-oxo-1H-quinolin-3-yl)methyl]-N-propan-2-ylpyridine-3-carboxamide] | > 50 µM
14 | NC(=O)C1(N2CCCCC2)CCN(C(=O)NC2CCCCC2)CC1 [1-N-cyclohexyl-4-piperidin-1-ylpiperidine-1,4-dicarboxamide] | > 50 µM
15 | c1ccc(NCc2nnc3n2CCCCC3)cc1 [MLS000057041] | > 50 µM
16 | CCOC(=O)c1c2c(n(C)c1C)C(=O)C(=O)c1ccc(Br)cc1-2 [8-bromo-2,3-dimethyl-4,5-dioxo-1-benzo[e]indolecarboxylic acid ethyl ester] | 0.723 µM
17 | Cc1ccc(Cl)cc1N1CCN(S(=O)(=O)c2ccc3c(c2)oc(=O)n3C)CC1 [6-[4-(5-chloranyl-2-methyl-phenyl)piperazin-1-yl]sulfonyl-3-methyl-1,3-benzoxazol-2-one] | > 50 µM
18 | Cn1nc(-c2ccc(Cl)cc2)nc2c(=O)n(C)c(=O)nc1-2 [3-(4-Chloro-phenyl)-1,6-dimethyl-1H-pyrimido[5,4-e][1,2,4]triazine-5,7-dione] | > 50 µM
19 | Cc1cc(C)n(-c2nnc3n2N=C(c2ccccc2)CS3)n1 [3-(3,5-dimethyl-1-pyrazolyl)-6-phenyl-7H-[1,2,4]triazolo[3,4-b][1,3,4]thiadiazine] | > 50 µM
20 | COc1ccc(C(C)C)cc1S(=O)(=O)Nc1ccc(Cl)cn1 [MLS000071127] | > 50 µM

Row | SMILES | EC50
21 | Cc1nc2c(=O)n(C)c(=O)nc-2n(C)n1 [1,3,6-Trimethyl-1H-pyrimido[5,4-e][1,2,4]triazine-5,7-dione] | > 50 µM
22 | CC(C)(C)NC(=O)CC(CC(=O)O)c1ccccc1 (stereo not given) [5-(tert-butylamino)-5-keto-3-phenyl-valeric acid] | > 50 µM
23 | O=C(Nc1nc2ccccc2s1)c1cc2c(s1)-c1ccccc1OC2 [MLS000522634] | > 50 µM
24 | CCOC(=O)Cc1csc(NC(=O)CSc2nnc(-c3ccc(F)cc3)o2)n1 [(2-{2-[5-(4-Fluoro-phenyl)-[1,3,4]oxadiazol-2-ylsulfanyl]-acetylamino}-thiazol-4-yl)-acetic acid ethyl ester] | > 50 µM
25 | COc1cccc(OC)c1C(=O)N1CCN(c2ccccn2)CC1 [(2,6-dimethoxyphenyl)-(4-pyridin-2-ylpiperazin-1-yl)methanone] | > 50 µM
26 | CC1Cc2ccccc2N1C(=O)c1ccc2c(c1)nnn2C (stereo not given) [(1-methyl-5-benzotriazolyl)-(2-methyl-2,3-dihydroindol-1-yl)methanone] | > 50 µM
27 | Cc1ccc(C(=O)Nc2cnc3sc(C)nn3c2=O)cc1 [4-methyl-N-(2-methyl-5-oxidanylidene-[1,3,4]thiadiazolo[3,2-a]pyrimidin-6-yl)benzamide] | > 50 µM
28 | CC(C)Sc1nc(N2CCOCC2)c2c(c1C#N)CC(C)(C)N(C)C2 [3-(isopropylthio)-6,6,7-trimethyl-1-morpholino-5,8-dihydro-2,7-naphthyridine-4-carbonitrile] | > 50 µM
29 | O=C(c1ccc(-n2cnnn2)cc1)N1CCCCC1 [1-piperidinyl-[4-(1-tetrazolyl)phenyl]methanone] | > 50 µM
30 | Cc1cccc(C)c1NC1=NC(=S)N(c2ccccc2)C12CCOC(C)(C)C2 (stereo not given) [4-(2,6-dimethylanilino)-7,7-dimethyl-1-phenyl-8-oxa-1,3-diazaspiro[4.5]dec-3-ene-2-thione] | > 50 µM
31 | COC(=O)c1ccccc1NC1=CC(=NS(=O)(=O)c2cccs2)c2ccccc2C1=O [methyl 2-[[(4E)-1-oxidanylidene-4-thiophen-2-ylsulfonylimino-naphthalen-2-yl]amino]benzoate] | > 50 µM
32 | Cc1ccc2cc(C(c3nnnn3C3CCCC3)N3CCN(c4ccccc4)CC3)c(=O)[nH]c2c1 (stereo not given) [3-[(1-cyclopentyltetrazol-5-yl)-(4-phenylpiperazin-1-yl)methyl]-7-methyl-1H-quinolin-2-one] | > 50 µM
33 | Cc1[nH]n2c(=O)cc(-c3ccc([N+](=O)[O-])cc3)nc2c1-c1ccccc1 [MLS000547439] | > 50 µM
34 | CCn1cnc2sc(C(=O)N3CCN(c4ccc(OC)cc4)CC3)c(C)c2c1=O [3-ethyl-6-[4-(4-methoxyphenyl)piperazin-1-yl]carbonyl-5-methyl-thieno[2,3-d]pyrimidin-4-one] | > 50 µM
35 | CC(=O)N(N=C1Sc2ccccc2C1=O)c1ccccc1 [N-[(Z)-(3-ketobenzothiophen-2-ylidene)amino]-N-phenyl-acetamide] | > 50 µM
36 | CCOC(=O)c1ccc(NC(=O)c2c(O)[nH]c(=O)[nH]c2=O)cc1 | > 50 µM
37 | CN1C(=O)N(C)C(=O)C2(Sc3ccccc3C2=O)C1=O [1',3'-dimethylspiro[benzothiophene-2,5'-hexahydropyrimidine]-2',3,4',6'-diquinone] | > 50 µM
38 | CCCc1nc2sc3c(c2c(=O)n1NC(=O)CCC(=O)O)CCCC3 [4-keto-4-[(4-keto-2-propyl-5,6,7,8-tetrahydrobenzothiopheno[2,3-d]pyrimidin-3-yl)amino]butyric acid] | > 50 µM
39 | O=C(NC1(O)C(=O)c2ccccc2C1=O)c1ccccc1 [N-(2-hydroxy-1,3-dioxo-2-indenyl)benzamide] | > 50 µM
40 | Cc1ccc(-n2c(O)c(C=NCCN3CCOCC3)c(=O)[nH]c2=O)cc1 | > 50 µM

Row | SMILES | EC50
41 | COc1ccc(CC2NCCC3(O)CCCCC23)cc1 (stereo not given) [1-(4-Methoxy-benzyl)-octahydro-isoquinolin-4a-ol] | > 50 µM
42 | O=C(Nc1ccccn1)C1CCN(S(=O)(=O)c2cccc3nonc23)CC1 [1-(2,1,3-benzoxadiazol-4-ylsulfonyl)-N-(2-pyridinyl)-4-piperidinecarboxamide] | > 50 µM
43 | COC(=O)CNC(=O)C12CC3(C)CC(C)(CC(C)(C3)C1)C2 [2-[[oxo-(3,5,7-trimethyl-1-adamantyl)methyl]amino]acetic acid methyl ester] | > 50 µM
44 | Cc1nc2cccc(C)n2c(=O)c1Cl [3-chloranyl-2,6-dimethyl-pyrido[1,2-a]pyrimidin-4-one] | > 50 µM
45 | Oc1ccc2ccc3cccc[n+]3c2c1 [9-benzo[c]quinolizin-11-iumol;iodide] | > 50 µM
46 | COc1ccc(Cn2c(=O)sc3ccccc32)cc1 [3-(4-Methoxy-benzyl)-3H-benzothiazol-2-one] | > 50 µM
47 | Cc1nn(C(C)C(=O)N2CCCCC2)c(=O)c2c1sc1ccccc12 (stereo not given) [2-(2-keto-1-methyl-2-piperidino-ethyl)-4-methyl-benzothiopheno[2,3-d]pyridazin-1-one] | > 50 µM
48 | Cc1ccc(C(=O)c2c[nH]c(C(=O)NCCCN3CCOCC3)c2)cc1 [4-(4-methylbenzoyl)-N-(3-morpholin-4-ylpropyl)-1H-pyrrole-2-carboxamide] | > 50 µM
49 | Cc1oc2c(c1C(=O)c1ccccc1)C(=O)C(=O)c1ccccc1-2 [2-methyl-3-(phenylcarbonyl)benzo[g][1]benzofuran-4,5-dione] | > 50 µM
50 | CS(=O)(=O)N1CCN(C/C=C/c2ccccc2)CC1 [1-(methylsulfonyl)-4-(3-phenyl-2-propen-1-yl)piperazine] | > 50 µM
51 | CC(C)OCCCNC(=O)c1ccc(NC(=O)C2CCCO2)cc1 (stereo not given) [MLS000086701] | > 50 µM
52 | O=C(COc1ccccc1)Nc1ccc(S(=O)(=O)N2CCOCC2)cc1 [MLS000108227] | > 50 µM
53 | O=C(NCCc1ccccc1)/C(=C\c1ccc([N+](=O)[O-])cc1)NC(=O)c1ccccc1 [MLS000575866] | > 50 µM
54 | O=C1C(=C2C(=O)c3ccccc3C2=O)Nc2ccccc21 [MLS000071738] | > 50 µM
55 | CCc1nc2cc(Cl)c(Cl)cc2[nH]1 [MLS000064722] | > 50 µM
56 | C=CCSc1nccc(-c2cc(Cl)sc2Cl)n1 [2-(allylsulfanyl)-4-(2,5-dichloro-3-thienyl)pyrimidine] | > 50 µM
57 | O=[N+]([O-])c1ccc(N2CCNCC2)cc1NCC1CCCO1 (stereo not given) [(2-nitro-5-piperazino-phenyl)-(tetrahydrofurfuryl)amine] | > 50 µM
58 | O=NCc1cc(Br)ccc1OCC(=O)O [2-[4-bromanyl-2-(hydroxyiminomethyl)phenoxy]ethanoic acid] | > 50 µM
59 | Nc1cc2nsnc2cc1Br [(6-bromopiazthiol-5-yl)amine] | > 50 µM
60 | O=C(CNS(=O)(=O)c1ccc(Br)s1)N1CCCC1 [5-bromanyl-N-(2-oxidanylidene-2-pyrrolidin-1-yl-ethyl)thiophene-2-sulfonamide] | > 50 µM

Source: BindingDB's records for doi:10.7270/Q2N58JS6 (University of Pittsburgh, 2007)
